# Laboratory results published in PubChem BioAssay AID1918935 (Molecular Pharmacology Branch, DTP, NCI, 2023).
# System: 324938-238-R-J1-PDC complex spheroid viability
# Experiment: Anticancer human tumor 324938-238-R-J1-PDC patient-derived bladder carcinoma cell line growth inhibition
# Conditions: for IC50: curve of first compound; for viability, T/C: stronger effect = lower value
# In short: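 Drug combinations with the LSD1 inhibitor iadademstat tested on tumor cells co-cultured as spheroids with endothelial cells and mesenchymal stem cells. Concentrations descended in half-log increments from clinical Cmax or 10 microM.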
# [1] = second compound 0.1 µM, first compound 0.000316 µM
# [2] = second compound 0.1 µM, first compound 0.001 µM
# [3] = second compound 0.1 µM, first compound 0.00316 µM
# [4] = second compound 0.1 µM, first compound 0.01 µM
# [5] = second compound 0.1 µM, first compound 0.0316 µM
# [6] = second compound 0.1 µM, first compound 0.1 µM
# [7] = second compound 0.316 µM, first compound 0.000316 µM
# [8] = second compound 0.316 µM, first compound 0.001 µM
# [9] = second compound 0.316 µM, first compound 0.00316 µM
# [10] = second compound 0.316 µM, first compound 0.01 µM
# [11] = second compound 0.316 µM, first compound 0.0316 µM
# [12] = second compound 0.316 µM, first compound 0.1 µM
# [13] = second compound 1 µM, first compound 0.000316 µM
# [14] = second compound 1 µM, first compound 0.001 µM
# [15] = second compound 1 µM, first compound 0.00316 µM
# [16] = second compound 1 µM, first compound 0.01 µM
# [17] = second compound 1 µM, first compound 0.0316 µM
# [18] = second compound 1 µM, first compound 0.1 µM
# [19] = second compound 3.16 µM, first compound 0.000316 µM
# [20] = second compound 3.16 µM, first compound 0.001 µM
# [21] = second compound 3.16 µM, first compound 0.00316 µM
# [22] = second compound 3.16 µM, first compound 0.01 µM
# [23] = second compound 3.16 µM, first compound 0.0316 µM
# [24] = second compound 3.16 µM, first compound 0.1 µM
# [25] = second compound 10 µM, first compound 0.000316 µM
# [26] = second compound 10 µM, first compound 0.001 µM
# [27] = second compound 10 µM, first compound 0.00316 µM
# [28] = second compound 10 µM, first compound 0.01 µM
# [29] = second compound 10 µM, first compound 0.0316 µM
# [30] = second compound 10 µM, first compound 0.1 µM
# [31] = second compound 0.1 µM, first compound 0.00949 µM
# [32] = second compound 0.1 µM, first compound 0.03 µM
# [33] = second compound 0.1 µM, first compound 0.0949 µM
# [34] = second compound 0.1 µM, first compound 0.3 µM
# [35] = second compound 0.316 µM, first compound 0.00949 µM
# [36] = second compound 0.316 µM, first compound 0.03 µM
# [37] = second compound 0.316 µM, first compound 0.0949 µM
# [38] = second compound 0.316 µM, first compound 0.3 µM
# [39] = second compound 1 µM, first compound 0.00949 µM
# [40] = second compound 1 µM, first compound 0.03 µM
# [41] = second compound 1 µM, first compound 0.0949 µM
# [42] = second compound 1 µM, first compound 0.3 µM
# [43] = second compound 3.16 µM, first compound 0.00949 µM
# [44] = second compound 3.16 µM, first compound 0.03 µM
# [45] = second compound 3.16 µM, first compound 0.0949 µM
# [46] = second compound 3.16 µM, first compound 0.3 µM
# [47] = second compound 10 µM, first compound 0.00949 µM
# [48] = second compound 10 µM, first compound 0.03 µM
# [49] = second compound 10 µM, first compound 0.0949 µM
# [50] = second compound 10 µM, first compound 0.3 µM
# 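Further: spheroids also contain HUVEC and human MSCs and agents combined with iadademstat; spheroids exposed to agents for 7 days before readout.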
smiles,measurement,setting,value
CC(C)CC(NC(=O)C(Cc1ccccc1)NC(=O)c1cnccn1)B(O)O (stereo not given) + NC1CC1c1ccc(-c2cccc(O)c2)cc1,IC50,second compound 0.1 µM,0.458 nM
same,IC50,second compound 0.316 µM,0.404 nM
same,IC50,second compound 1 µM,0.364 nM
same,IC50,second compound 3.16 µM,0.389 nM
same,IC50,second compound 10 µM,0.34 nM
same,"viability, T/C",[1],68.2%
same,"viability, T/C",[2],12.1%
same,"viability, T/C",[3],0.5%
same,"viability, T/C",[4],2.29%
same,"viability, T/C",[5],0.55%
same,"viability, T/C",[6],0.16%
same,"viability, T/C",[7],62%
same,"viability, T/C",[8],5.56%
same,"viability, T/C",[9],0.25%
same,"viability, T/C",[10],0.3%
same,"viability, T/C",[11],0.26%
same,"viability, T/C",[12],0.14%
same,"viability, T/C",[13],56%
same,"viability, T/C",[14],6.79%
same,"viability, T/C",[15],0.15%
same,"viability, T/C",[16],0.61%
same,"viability, T/C",[17],0.07%
same,"viability, T/C",[18],0.17%
same,"viability, T/C",[19],59.2%
same,"viability, T/C",[20],7.68%
same,"viability, T/C",[21],0.39%
same,"viability, T/C",[22],0.28%
same,"viability, T/C",[23],0.28%
same,"viability, T/C",[24],0.14%
same,"viability, T/C",[25],53.1%
same,"viability, T/C",[26],4.57%
same,"viability, T/C",[27],0.15%
same,"viability, T/C",[28],0.15%
same,"viability, T/C",[29],0.16%
same,"viability, T/C",[30],0.21%
CC(C)CC(NC(=O)CNC(=O)c1cc(Cl)ccc1Cl)B1OC(=O)CC(CC(=O)O)(C(=O)O)O1 (stereo not given) + NC1CC1c1ccc(-c2cccc(O)c2)cc1,IC50,second compound 0.1 µM,1.65 nM
same,IC50,second compound 0.316 µM,1.39 nM
same,IC50,second compound 1 µM,1.39 nM
same,IC50,second compound 3.16 µM,1.36 nM
same,IC50,second compound 10 µM,1.18 nM
same,"viability, T/C",[1],94.4%
same,"viability, T/C",[2],68.7%
same,"viability, T/C",[3],25.7%
same,"viability, T/C",[4],5.88%
same,"viability, T/C",[5],3.13%
same,"viability, T/C",[6],0.16%
same,"viability, T/C",[7],73%
same,"viability, T/C",[8],59.3%
same,"viability, T/C",[9],26.3%
same,"viability, T/C",[10],4.54%
same,"viability, T/C",[11],0.95%
same,"viability, T/C",[12],0.15%
same,"viability, T/C",[13],78.3%
same,"viability, T/C",[14],61.5%
same,"viability, T/C",[15],21.6%
same,"viability, T/C",[16],4.36%
same,"viability, T/C",[17],0.4%
same,"viability, T/C",[18],1.08%
same,"viability, T/C",[19],77.5%
same,"viability, T/C",[20],58.5%
same,"viability, T/C",[21],26.3%
same,"viability, T/C",[22],5.45%
same,"viability, T/C",[23],0.71%
same,"viability, T/C",[24],1.92%
same,"viability, T/C",[25],67.7%
same,"viability, T/C",[26],54.7%
same,"viability, T/C",[27],20.6%
same,"viability, T/C",[28],2.92%
same,"viability, T/C",[29],0.54%
same,"viability, T/C",[30],0.22%
CCc1c2c(nc3ccc(O)cc13)-c1cc3c(c(=O)n1C2)COC(=O)[C@]3(O)CC + NC1CC1c1ccc(-c2cccc(O)c2)cc1,IC50,second compound 0.1 µM,< 0.949 nM
same,IC50,second compound 0.316 µM,< 0.949 nM
same,IC50,second compound 1 µM,< 0.949 nM
same,IC50,second compound 3.16 µM,< 0.949 nM
same,IC50,second compound 10 µM,< 0.949 nM
same,"viability, T/C","second compound 0.1 µM, first compound 0.000949 µM",8.63%
same,"viability, T/C","second compound 0.1 µM, first compound 0.003 µM",8.28%
same,"viability, T/C",[31],6.38%
same,"viability, T/C",[32],2.62%
same,"viability, T/C",[33],1.19%
same,"viability, T/C",[34],0.47%
same,"viability, T/C","second compound 0.316 µM, first compound 0.000949 µM",7.65%
same,"viability, T/C","second compound 0.316 µM, first compound 0.003 µM",7.41%
same,"viability, T/C",[35],5.98%
same,"viability, T/C",[36],2.79%
same,"viability, T/C",[37],0.46%
same,"viability, T/C",[38],0.55%
same,"viability, T/C","second compound 1 µM, first compound 0.000949 µM",6.57%
same,"viability, T/C","second compound 1 µM, first compound 0.003 µM",8.14%
same,"viability, T/C",[39],6.37%
same,"viability, T/C",[40],1.95%
same,"viability, T/C",[41],0.51%
same,"viability, T/C",[42],0.15%
same,"viability, T/C","second compound 3.16 µM, first compound 0.000949 µM",6.75%
same,"viability, T/C","second compound 3.16 µM, first compound 0.003 µM",6.96%
same,"viability, T/C",[43],6.25%
same,"viability, T/C",[44],2.46%
same,"viability, T/C",[45],0.53%
same,"viability, T/C",[46],0.31%
same,"viability, T/C","second compound 10 µM, first compound 0.000949 µM",10.5%
same,"viability, T/C","second compound 10 µM, first compound 0.003 µM",9.76%
same,"viability, T/C",[47],7.12%
same,"viability, T/C",[48],2.62%
same,"viability, T/C",[49],0.17%
same,"viability, T/C",[50],0.23%
Nc1ccccc1NC(=O)c1ccc(CNC(=O)OCc2cccnc2)cc1 + NC1CC1c1ccc(-c2cccc(O)c2)cc1,IC50,second compound 0.1 µM,501 nM
same,IC50,second compound 0.316 µM,437 nM
same,IC50,second compound 1 µM,487 nM
same,IC50,second compound 3.16 µM,489 nM
same,IC50,second compound 10 µM,401 nM
same,"viability, T/C",[31],86.6%
same,"viability, T/C",[32],87.6%
same,"viability, T/C",[33],70.2%
same,"viability, T/C",[34],62.6%
same,"viability, T/C","second compound 0.1 µM, first compound 0.949 µM",36.7%
same,"viability, T/C","second compound 0.1 µM, first compound 3 µM",7.26%
same,"viability, T/C",[35],83.8%
same,"viability, T/C",[36],80.1%
same,"viability, T/C",[37],71.7%
same,"viability, T/C",[38],56.1%
same,"viability, T/C","second compound 0.316 µM, first compound 0.949 µM",35.9%
same,"viability, T/C","second compound 0.316 µM, first compound 3 µM",5.68%
same,"viability, T/C",[39],67.2%
same,"viability, T/C",[40],76%
same,"viability, T/C",[41],66.7%
same,"viability, T/C",[42],56.3%
same,"viability, T/C","second compound 1 µM, first compound 0.949 µM",39.5%
same,"viability, T/C","second compound 1 µM, first compound 3 µM",3.75%
same,"viability, T/C",[43],76.7%
same,"viability, T/C",[44],67%
same,"viability, T/C",[45],70.4%
same,"viability, T/C",[46],59.2%
same,"viability, T/C","second compound 3.16 µM, first compound 0.949 µM",37.6%
same,"viability, T/C","second compound 3.16 µM, first compound 3 µM",5.73%
same,"viability, T/C",[47],63.2%
same,"viability, T/C",[48],66.1%
same,"viability, T/C",[49],68.2%
same,"viability, T/C",[50],51.2%
same,"viability, T/C","second compound 10 µM, first compound 0.949 µM",36.4%
same,"viability, T/C","second compound 10 µM, first compound 3 µM",6.9%
O=C(c1cc(Cc2n[nH]c(=O)c3ccccc23)ccc1F)N1CCN(C(=O)C2CC2)CC1 + NC1CC1c1ccc(-c2cccc(O)c2)cc1,IC50,second compound 0.1 µM,2150 nM
same,IC50,second compound 0.316 µM,1980 nM
same,IC50,second compound 1 µM,917 nM
same,IC50,second compound 3.16 µM,1500 nM
same,IC50,second compound 10 µM,1220 nM
same,"viability, T/C",[5],89.8%
same,"viability, T/C",[6],80.6%
same,"viability, T/C","second compound 0.1 µM, first compound 0.316 µM",72.4%
same,"viability, T/C","second compound 0.1 µM, first compound 1 µM",61.4%
same,"viability, T/C","second compound 0.1 µM, first compound 3.16 µM",43.3%
same,"viability, T/C","second compound 0.1 µM, first compound 10 µM",33.9%
same,"viability, T/C",[11],87.8%
same,"viability, T/C",[12],78.5%
same,"viability, T/C","second compound 0.316 µM, first compound 0.316 µM",77.1%
same,"viability, T/C","second compound 0.316 µM, first compound 1 µM",62.7%
same,"viability, T/C","second compound 0.316 µM, first compound 3.16 µM",40.4%
same,"viability, T/C","second compound 0.316 µM, first compound 10 µM",36.3%
same,"viability, T/C",[17],74.2%
same,"viability, T/C",[18],74.2%
same,"viability, T/C","second compound 1 µM, first compound 0.316 µM",64.4%
same,"viability, T/C","second compound 1 µM, first compound 1 µM",48%
same,"viability, T/C","second compound 1 µM, first compound 3.16 µM",40.3%
same,"viability, T/C","second compound 1 µM, first compound 10 µM",34.1%
same,"viability, T/C",[23],68.2%
same,"viability, T/C",[24],74%
same,"viability, T/C","second compound 3.16 µM, first compound 0.316 µM",77.7%
same,"viability, T/C","second compound 3.16 µM, first compound 1 µM",56%
same,"viability, T/C","second compound 3.16 µM, first compound 3.16 µM",41.3%
same,"viability, T/C","second compound 3.16 µM, first compound 10 µM",36.2%
same,"viability, T/C",[29],73.1%
same,"viability, T/C",[30],66.7%
same,"viability, T/C","second compound 10 µM, first compound 0.316 µM",66.3%
same,"viability, T/C","second compound 10 µM, first compound 1 µM",49.9%
same,"viability, T/C","second compound 10 µM, first compound 3.16 µM",43.8%
same,"viability, T/C","second compound 10 µM, first compound 10 µM",38.2%
